These results are taken from publication PMC6359455, “Partial Solvation Parameters of Drugs as a New Thermodynamic Tool for Pharmaceutics” (Pharmaceutics, 2019).

Series [1] in a line: LSER descriptors by PSP approach from experimental inverse gas chromatography (IGC) data. It is filed as physicochemical. As to conditions: initial or tentative estimates; for A (PSP): LSER acidity descriptor; for B (PSP): LSER basicity descriptor; for S (PSP): LSER polarity descriptor. The method, then:
(§1) Inverse gas chromatography (IGC) was used to analyze solid samples packed into a chromatographic column as stationary phase. The equipment was a surface energy analyzer (iGC-SEA) from Surface Measurement Systems Ltd. (London, UK) and about 200 mg of each drug was inserted into silanized glass columns (3 mm inner diameter) by employing a standardized packing method with silanized glass wool that was used at both ends of the column as fixation. Prior to each measurement, the samples were conditioned for 1 h at 30 °C with dry helium with 0% relative humidity at a flow rate of 15 standard cubic centimeters per minute (sccm). Dead volume of the system was determined by injecting the inert probe methane prior and after each measurement. This stationary phase was flushed with an inert carrier gas—helium in the present study. Measuring conditions were the same as applied for sample conditioning, except for a flow rate of 10 sccm that was used. For all experiments, a relative surface coverage of 5% was selected.
The extent of interactions between the solid phase of interest and the probe gas is obtained by the net retention volume VN:(31) VN=j/mF(tR−t0)T/273.15, where T is the column temperature, F is the carrier gas flow rate at 1 atm and 273.15 K, m is the sample mass, tR is the retention time of the absorbed probe gas and t0 is the mobile phase hold up time, and finally, j represents the James–Martin correction (that adjusts retention time for the pressure drop effect in the column bed). The calculated retention volume VN is then used to estimate the mass activity coefficient, Ω at infinite dilution:(32) ln(Ω)=ln(273.15R/p0M1VN)−p0(B11−V1)/RT, where po is the saturation pressure and M is the molecular mass, while B11 is the second virial coefficient and V1 holds for molar volume of the probe gas. Conversion of the mass activity coefficient Ω to mole fraction activity coefficient γ (at infinite dilution) is done via the following equation:(33) lnγ1res,∞=ln(Ω1M1/M2)−(lnr1/r2+1−r1/r2)=r1χ12. and provided the basis for further thermodynamic analysis, as described in the Results section.
The PSP approach was used to characterize the studied drugs, that is, to determine their LSER descriptors from the experimental IGC data. The McGowan volume, Vx, is an atom-specific quantity and, thus, it is obtained either from the ACD software or from the freely accessible database via their SMILES form. […].
A and B descriptors were then obtained from IGC data with hydrogen-bonding probes (acidic, like chloroform, basic, like acetone, and homosolvated, like ethanol) correlated with Equation (34).

Series [2] is described as follows: Differential scanning calorimetry (enthalpy of fusion). It counts as physicochemical. The following applies: DSC, 10 °C/min, triplicate. The method, then:
Differential scanning calorimetry (DSC) thermograms were obtained using a DSC 1 instrument from Mettler-Toledo AG (Greifensee, Switzerland). The instrument was calibrated for temperature and enthalpy using indium. Nitrogen was used as protective gas (150 mL/min). Samples (2–3 mg) were placed in 40 μL aluminum pans with pierced aluminum lids (Mettler-Toledo AG, Greifensee, Switzerland). The melting onset temperature (Tm) and the enthalpy of fusion (ΔHf) were determined by heating the samples at 10 °C/min from 25 °C to a maximum temperature of 300 °C. All DSC measurements were carried out in triplicate.
A general note: Differential scanning calorimetry records heat flow against a reference as temperature is scanned.

Series [3] is described as follows: Surface energy components by IGC with the PSP/LSER method. It counts as physicochemical. The following applies: for γd (dispersion component of surface energy): IGC, Dorris–Gray method, amorphous drug, 30 °C; for γhb (hydrogen-bonding surface energy component) / γa (acidic surface energy component) / γb (basic surface energy component) / γtot (total surface energy): PSP/LSER method; for γa (acidic surface energy component) / γb (basic surface energy component): Equation (27), unit assumed; for γtot (total surface energy): Equation (36). Here is the method:
as §1
The PSP framework can also be used for the estimation of the surface energy components of the studied drugs. However, there are practically no data on the total surface energies of drugs available in the literature. Instead, the dispersion components, γd, were determined by the Dorris–Gray method. This dispersion component is practically equivalent to our nonhydrogen-bonding component, γVES. Thus, we may use Equation (29) in the equivalent form of Equation (36) and obtain the total surface energy of the drugs, γtot: (36) γtot=γd3.1Vx+E+S+2AB/3.1Vx+E+S.
In a similar manner, the acidity and basicity components of the surface energy are obtained from Equation (27).

Series [4] can be described thus: Residual solid XRPD analysis after solubility equilibration in solvents. The following applies: 24 h equilibration at room temperature in solvent. It counts as physicochemical. Here is the method: All experiments were performed in triplicate. The drug concentration in the solvent bulk phase was determined simultaneously with a residual solid analysis of the drug by means of XRPD to detect possible solvent-mediated phase changes. Such residual solid analysis has been published before for a different miniaturized assay. […] The closed vials were equilibrated for 24 h by magnetic stirring at room temperature. […] An isocratic flow of a mixture of solvent A and solvent B was initially applied for 0.3 min at a flow rate of 0.75 mL/min. […] Table 1 summarizes the experimental conditions (initial composition of mobile phase, detection wave length) used for the different drugs. For solid state analysis, approx. 10-20 mg of the residual wet solids was manually transferred into a 96-well MultiScreen® Solubility Filter Plate (Millipore, Bedford, MA, USA) by a spatula. The filter plate was immediately sealed with adhesive acetate foil for microtest well plates (Sarstedt Inc., Newton, NC, USA) to minimize solvent evaporation. Solid state analysis of residual solids was based on a high-throughput XRPD method using a […] […] Samples were analyzed directly in the 96-well filter plate with an exposure time of 5 min per well.

Series [5] can be described thus: Cohesive energy (solubility-parameter) components by the PSP/LSER method.

With `COc1cc(C(=O)NS(=O)(=O)c2ccccc2C)ccc1Cc1cn(C)c2ccc(NC(=O)OC3CCCC3)cc12` [Zafirlukast, zafirlukast], in series [1], the “A (PSP)” value is on record as 0.71, the “B (PSP)” value is on record as 2.1 and the “S (PSP)” value was 4.66. The “ΔH^m (heat of fusion)” value in series [2] stood at 4.68 ± 0.406 kcal/mol. In series [3], the “γd (dispersion component of surface energy)” value amounted to 49.43 mJ/m^2, the “γhb (hydrogen-bonding surface energy component)” value (shortened to “γhb”) is 5.64 mJ/m^2, the γa (acidic surface energy component) was 1.64 mJ/m^2 and the γb (basic surface energy component) stood at 4.85 mJ/m^2. Also, the “γtot (total surface energy)” value in series [3] amounted to 55.07 mJ/m^2. Besides, the “Residual solid form after solubility equilibration (XRPD)” value in series [4] was “at least one different solid form following equilibration”. Further, in series [5], the “σGa (acidity PSP)” value came to 4.03 MPa^0.5, the “σGb (basicity PSP)” value amounted to 6.94 MPa^0.5, the “σd (dispersion PSP)” value was 19.60 MPa^0.5 and the “σhb (hydrogen-bonding PSP)” value worked out at 9.01 MPa^0.5. Besides, in series [5], the “σp (polarity PSP)” value was determined as 10.33 MPa^0.5 and the “σtot (square root of total cohesive energy density, equivalent to δtot)” value is listed as 23.92 MPa^0.5.

For the compound `CCC(C)(C)C(=O)O[C@H]1C[C@@H](C)C=C2C=C[C@H](C)[C@H](CC[C@@H]3C[C@@H](O)CC(=O)O3)[C@H]21` [Simvastatin, simvastatin], in series [1], the “A (PSP)” value is listed as 0.20, the “B (PSP)” value is 0.7 ± 0.2 and the “S (PSP)” value is given as 4.28. In addition, the “ΔH^m (heat of fusion)” value in series [2] amounted to 6.969 ± 0.198 kcal/mol. In series [3], the “γd (dispersion component of surface energy)” value worked out at 57.36 mJ/m^2, the “γhb” value came to 2.64 mJ/m^2, the γa (acidic surface energy component) turned out to be 0.71 mJ/m^2 and the γb (basic surface energy component) amounted to 2.47 mJ/m^2. Also, the “γtot (total surface energy)” value in series [3] came out at 60.00 mJ/m^2.

Consider `CCOC(=O)N1CCC(=C2c3ccc(Cl)cc3CCc3cccnc32)CC1` [Loratadine, loratadine], for which, in series [1], the “A (PSP)” value is 0.00, the “B (PSP)” value was 0.6 ± 0.2 and the “S (PSP)” value was 2.96. Moreover, the “ΔH^m (heat of fusion)” value in series [2] is 6.685 ± 0.043 kcal/mol. In series [3], the “γd (dispersion component of surface energy)” value stood at 41.6 mJ/m^2, the “γhb” value is given as 0.00 mJ/m^2 and the “γtot (total surface energy)” value amounted to 41.60 mJ/m^2. For the same compound, in series [5], the “σd (dispersion PSP)” value was 19.11 MPa^0.5 and the “σp (polarity PSP)” value turned out to be 9.87 MPa^0.5.

As to `CC(=O)N1CCN(c2ccc(OCC3COC(Cn4ccnc4)(c4ccc(Cl)cc4Cl)O3)cc2)CC1` (stereo not shown) [Ketoconazole, ketoconazole], in series [1], the “A (PSP)” value is on record as 0.00, the “B (PSP)” value is listed as 0.7 ± 0.3 and the “S (PSP)” value is 2.75. The “ΔH^m (heat of fusion)” value in series [2] turned out to be 12.71 ± 0.141 kcal/mol. In addition, in series [3], the “γd (dispersion component of surface energy)” value is 45.86 mJ/m^2, the “γhb” value came out at 0.00 mJ/m^2, the γa (acidic surface energy component) worked out at 0 mJ/m^2 and the γb (basic surface energy component) came out at 1.84 mJ/m^2. The “γtot (total surface energy)” value in series [3] turned out to be 45.86 mJ/m^2. In addition, in series [5], the “σGa (acidity PSP)” value is given as 0.00 MPa^0.5, the “σGb (basicity PSP)” value is given as 4.26 MPa^0.5, the “σd (dispersion PSP)” value amounted to 19.52 MPa^0.5 and the “σhb (hydrogen-bonding PSP)” value is given as 0.00 MPa^0.5. In series [5], the “σp (polarity PSP)” value came out at 8.45 MPa^0.5 and the “σtot (square root of total cohesive energy density, equivalent to δtot)” value is reported as 21.27 MPa^0.5.

With `COc1ccccc1OCCNCC(O)COc1cccc2[nH]c3ccccc3c12` (stereo not shown) [Carvedilol, carvedilol], in series [1], the “A (PSP)” value was 0.50, the “B (PSP)” value is listed as 1.45 and the “S (PSP)” value is listed as 3.19. In addition, the “ΔH^m (heat of fusion)” value in series [2] came to 11.32 ± 0.0884 kcal/mol. For the same compound, in series [3], the “γd (dispersion component of surface energy)” value came to 47.83 mJ/m^2, the “γhb” value is given as 5.13 mJ/m^2, the γa (acidic surface energy component) turned out to be 1.51 mJ/m^2 and the γb (basic surface energy component) was 4.37 mJ/m^2. Also, the “γtot (total surface energy)” value in series [3] is listed as 52.96 mJ/m^2. Also, the “Residual solid form after solubility equilibration (XRPD)” value in series [4] is given as “a changed solid form in dichloromethane after equilibration”. In addition, in series [5], the “σGa (acidity PSP)” value turned out to be 3.92 MPa^0.5, the “σGb (basicity PSP)” value is 6.68 MPa^0.5, the “σd (dispersion PSP)” value was 19.75 MPa^0.5 and the “σhb (hydrogen-bonding PSP)” value is 8.14 MPa^0.5. Also, the “σp (polarity PSP)” value in series [5] was 9.91 MPa^0.5.
